Laboratory results: patent publication US20080279897A1, “Method of Treating Cellular Damage” (MEDVET SCIENCE PTY. LTD., priority 2005, published 2008)
Residue numbers refer to the chain shown, from its start. Names and notes keep the numbering of the source.

What was measured:
[1] = test system: SphK; experiment: SphK activity in HUVEC; type: cell-based, human; conditions: for effect on high glucose-induced increases in SphK activity: PD98059 10 μM, U0126 2 μM; for effect on SphK activity: 22 mmol/L, osmotic control
Description: Human umbilical vein EC (HUVEC) and bovine aortic EC (BAEC) were routinely cultured in this laboratory as previously described ([…] et al., 2004, Circ. Res. 94:1515-1522). In all experiments EC ranging from passage 2-6 were used. For the experimental studies, EC were allowed to reach confluence in the regular growth media. Medium was then changed to (i) EBM (Clonetics, Walkersville, Md.) containing 1% FCS and 5.5 mM glucose (normal glucose, NG); (ii) NG medium supplemented with additional glucose to final concentration of 22 mM (high glucose); or (iii) NG medium containing 16.5 mM L-glucose or mannitol that served as an osmotic control for the high glucose medium. As described previously (Xia et al., 1999, J. Biol. […] The formation of S1P in vivo was measured in the permeabilized cells as previously described (Xia et al., 1998, Proc. Natl. Acad. Sci. U.S.A 95:14196-14201).

[2] = test system: E-selectin; experiment: Cell surface E-selectin expression in HUVEC by flow cytometry; type: cell-based, human; conditions: for effect on E-selectin expression: 5 μM for 6 hrs
Description: (§1) Human umbilical vein EC (HUVEC) and bovine aortic EC (BAEC) were routinely cultured in this laboratory as previously described (Verrier et al., 2004, Circ. Res. 94:1515-1522). In all experiments EC ranging from passage 2-6 were used. For the experimental studies, EC were allowed to reach confluence in the regular growth media. Medium was then changed to (i) EBM (Clonetics, Walkersville, Md.) containing 1% FCS and 5.5 mM glucose (normal glucose, NG); (ii) NG medium supplemented with additional glucose to final concentration of 22 mM (high glucose); or (iii) NG medium containing 16.5 mM L-glucose or mannitol that served as an osmotic control for the high glucose medium.
(§2) After the indicated treatment, HUVECs were incubated with primary monoclonal antibodies to VCAM-1, ICAM-1 and E-selectin or an isotype-matched non-relevant antibody for 30 min. Cells were then incubated with FITC-conjugated secondary antibody and fixed in 2.5% formaldehyde. The expression of cell-surface adhesion molecules was measured as fluorescence intensity by use of a Coulter Epics Profile XL flow cytometer, as described previously (Verrier et al., 2004, supra).

[3] = test system: S1P formation; experiment: S1P formation in endothelial cells; type: cell-based, human; conditions: 22 mmol/L
Description: as §1
(§3) As described previously (Xia et al., 1999, J. Biol. Chem. 274:34499-34505), SphK activity was routinely determined using D-erythro-sphingosine (Biomol, Plymouth Meeting, Pa.) and [γ^32P]ATP (Geneworks, Adelaide, Australia) as substrates, and defined as picomoles of S1P formed per min per mg protein. The formation of S1P in vivo was measured in the permeabilized cells as previously described (Xia et al., 1998, Proc. Natl. Acad. Sci. U.S.A 95:14196-14201).

[4] = test system: SphK; experiment: SphK activity in BAEC (parental or transfected); type: cell-based, bovine; conditions: for effect on SphK activity: BAEC, 22 mmol/L, osmotic control
Description: as §1
(§4) FLAG-tagged human wild-type SphK1 cDNA and the dominant negative SphK1^G82D were sub-cloned into pcDNA3 plasmids (Invitrogen, Melbourne, Australia) as previous described (Pitson et al., 2000, J. Biol. Chem. 275:33945-33950). Lipofectamine 2000 (Invitrogen) mediated transfection was performed in BAEC according to the manufacturer's protocols. For stable expression, the transfectants were selected in medium containing 800 μg/ml G418 (Invitrogen). The resulting non-clonal pools of G418-resistant transfected cells were then collected and used to avoid clonal variability. The expression of FLAG-tagged transgenes was determined by Westernblot assay with the antibodies against FLAG (M2, Sigma, Clayton, Australia).
as §3

[5] = test system: PKC; experiment: PKC activity assay in situ in HUVEC; type: cell-based, human; conditions: 2.5 μmol/L, high glucose
Description: PKC activity was measured in situ as described previously (Xia et al., 1996, J. Clin. Invest 98:2018-2026). Briefly, cells were seeded in 24-well plates and exposed to NG or HG for 3 days. After the indicated treatments, total PKC activity was then determined in permeabilized cells in the presence of 10 μM [γ^32P]ATP (5000 cpm/pmol) and the PKC-specific peptide substrate (RKRTLRRL, 200 μM). The activity was then quantified by scintillation counting and normalized to total protein levels.

[6] = test system: ICAM-1; experiment: Cell surface ICAM-1 expression in HUVEC by flow cytometry; type: cell-based, human
Description: as §1, §2

[7] = test system: VCAM-1; experiment: Cell surface VCAM-1 expression in HUVEC by flow cytometry; type: cell-based, human
Description: as §1, §2

[8] = test system: NF-κB; experiment: NF-κB electrophoretic mobility shift assay in HUVEC; type: cell-based, human; conditions: 2.5 μM, gel shift
Description: (§5) Nuclear extracts were prepared from EC exposed to NG or HG with or without the indicated treatment. The double-stranded oligonucleotides used as probes in the experiments included 5′-[…]-3′ (SEQ ID NO: 1) which contains a consensus NF-κB binding site in E-selectin promoter (underlined). Gel mobility shift of a consensus NF-κB oligonucleotide was performed by incubating a ^32P-labelled NF-κB probe with 4 μg of nuclear proteins as described previously (Xia et al., 1998, supra).

[9] = test system: U937 cells adhering to HUVEC; experiment: Adherence of U937 cells to HUVEC; type: cell-based, human; conditions: 50 ng/ml
Description: (§6) U937 cells (CRL 1593.2; ATCC) were grown in RPMI-1640 medium (GIBCO BRL) containing 10% FCS, collected by low-speed centrifugation and resuspended at a density of 2×10^5 cells/ml in medium without FCS. EC were seeded into 24-well plates and cultured with NG or HG medium for 3 days after confluence. After washing twice with warm RPMI-1640 medium, the U937 cell suspension (100 μl/well) was added and incubated for 30 minutes at 37° C. Non-adherent cells were removed by rinsing the plates three times with PBS, and the number of adherent cells was then counted under microscopy with at least 6 fields per well culture being quantified.

[10] = test system: U937 cells adhering to BAEC; experiment: Adherence of U937 cells to transfected BAEC; type: cell-based, bovine; conditions: stably transfected BAEC, 22 mM glucose 3 days
Description: as §4, §6

[11] = test system: NF-κB; experiment: NF-κB electrophoretic mobility shift assay in BAEC; type: cell-based, bovine; conditions: gel shift
Description: as §4, §5

[12] = 2.5 μmol/L, 3 days high glucose

CN(C)CCCn1cc(C2=C(c3c[nH]c4ccccc34)C(=O)NC2=O)c2ccccc21 [GF109203X]
attenuation of high glucose-induced increases in SphK activity ([1]; 5 μM, 30 min): ~50%

CCCCCCCCCCCCCCC[C@@H](O)[C@@H](N)COP(=O)(O)O [dihydro-S1P, sphinganine-1-phosphate]
effect on E-selectin expression [2]: no significant effect

COc1cccc(-c2cc(=O)c3ccccc3o2)c1N [PD98059]
effect on high glucose-induced increases in SphK activity ([1]; 30 min): completely prevented

N#CC(=C(/N)Sc1ccccc1N)/C(C#N)=C(\N)Sc1ccccc1N [U0126]
effect on high glucose-induced increases in SphK activity ([1]; 30 min): completely prevented

OC[C@@H](O)[C@@H](O)[C@H](O)[C@H](O)CO [mannitol]
effect on S1P production [3]: fails to activate sphingosine kinase or effect S1P production
effect on SphK activity [1]: neither mannitol nor L-glucose at 22 mmol/L had any significant effects
effect on SphK activity [4]: neither mannitol nor L-glucose at 22 mmol/L had any significant effects

CCCCCCCCCCCCC/C=C/[C@@H](O)[C@H](CO)N(C)C [DMS, N′N′-dimethylsphingosine]
inhibitory effect on PKC activity [5]: no inhibitory effect
effect on high glucose-induced increase in ICAM-1 expression [6, 12]: completely abolished
effect on high glucose-induced increase in VCAM-1 expression [7, 12]: completely abolished
effect on high glucose-induced NF-κB activation [8]: completely inhibited
inhibition of high glucose-induced SphK activity ([1]; 2.5 μmol/L): capable of inhibiting
effect on high glucose-induced increase in E-selectin expression [2, 12]: completely abolished

pertussis toxin
inhibition of high glucose-induced expression of ICAM-1 ([6]; 50 ng/ml, vs untreated cells): 42%
number of leukocytes adhering to high glucose-stimulated EC [9]: partially, but significantly, reduced
inhibition of high glucose-induced expression of VCAM-1 ([7]; 50 ng/ml, vs untreated cells): 30%
inhibition of high glucose-induced expression of E-selectin ([2]; 50 ng/ml, vs untreated cells): 35%
inhibition of LPA-induced E-selectin expression ([2]; 5 μM LPA 6 hrs, PTX 50 ng/ml): completely inhibited
inhibition of S1P-induced E-selectin expression ([2]; 5 μM S1P 6 hrs, PTX 50 ng/ml): 32%

CCCCCCCCCCCCC/C=C/[C@@H](O)[C@@H](N)COP(=O)(O)O [S1P, sphingosine-1-phosphate]
effect on E-selectin expression [2]: significant increase

lysophosphatidic acid [LPA]
effect on E-selectin expression [2]: significant increase

O=C[C@@H](O)[C@H](O)[C@@H](O)[C@@H](O)CO [L-glucose]
effect on S1P production [3]: fails to activate sphingosine kinase or effect S1P production
effect on SphK activity [1]: neither mannitol nor L-glucose at 22 mmol/L had any significant effects
effect on SphK activity [4]: neither mannitol nor L-glucose at 22 mmol/L had any significant effects

B1: SphK^WT: FLAG-tagged wild-type human SphK1 stably overexpressed in BAEC by transfection (protein, UniProt Q9NYA1 1-384, looked up)
Sphingosine kinase 1: MDPAGGPRGVLPRPCRVLVLLNPRGGKGKALQLFRSHVQPLLAEAEISFTLMLTERRNHARELVRSEELGRWDALVVMSGDGLMHEVVNGLMERPDWETAIQKPLCSLPAGSGNALAASLNHYAGYEQVTNEDLLTNCTLLLCRRLLSPMNLLSLHTASGLRLFSVLSLAWGFIADVDLESEKYRRLGEMRFTLGTFLRLAALRTYRGRLAYLPVGRVGSKTPASPVVVQQGPVDAHLVPLEEPVPSHWTVVPDEDFVLVLALLHSHLGSEMFAAPMGRCAAGVMHLFYVRAGVSRAMLLRLFLAMEKGRHMEYECPYLVYVPVVAFRLEPKDGKGVFAVDGELMVSEAVQGQVHPNYFWMVSGCVEPPPSWKPQQMPPPEEPL
modifications: FLAG tag
notes: FLAG-tagged wild-type human SphK1 stably overexpressed in BAEC by transfection
basal level of SphK activity, higher than control cells ([4]; stably transfected BAEC): 10 fold
number of leukocytes adhering to high glucose-stimulated BAEC [10]: markedly enhanced

B2: SphK^G82D: point mutation of human SphK1, dominant-negative mutant, stably expressed in BAEC by transfection (protein, UniProt Q9NYA1 1-384, looked up, variant G82D)
Sphingosine kinase 1: B1 Sphingosine kinase 1 with G82D
high glucose-induced NF-κB activation in cells expressing the mutant [11]: incapable of activating NF-κB
SphK activation under high glucose conditions ([4]; BAEC expressing the mutant, 22 mM glucose 3 days): no SphK activation
number of leukocytes adhering to high glucose-stimulated BAEC [10]: profoundly attenuated
